Data from patent publication US20240090503A1, “FUNGICIDAL OXADIAZOLES AND THEIR MIXTURES” (FMC CORPORATION, priority 2020, published 2024).
Marks after values point to notes of the source that are not given here.

Tests used:
Format in all cases: in vivo
[1] = tested on: Phakopsora pachyrhizi (the causal agent of Asian soybean rust); experiment: Test A: preventive spray on soybean seedlings, Asian soybean rust, visual disease rating
Procedure, shortened: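 Compound in acetone/water (50/50) with 250 ppm PEG400 sprayed to run-off on soybean seedlings; inoculated next day with Phakopsora pachyrhizi spores. Held 24 h at 22° C in saturated atmosphere, then 8 days in a 22° C growth chamber before visual rating as % disease control relative to controls.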

[2] = tested on: Zymoseptoria tritici (the causal agent of wheat leaf blotch); experiment: Test B: preventive spray on wheat seedlings, wheat leaf blotch, visual disease rating
Procedure, shortened: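 This is a preventive test: spray application preceded Zymoseptoria tritici spore inoculation by one day. Test suspensions were in acetone/water with 250 ppm PEG400 surfactant, at the listed ppm rate. After 48 h saturated humidity at 24° C and 17 days at 20° C, visual ratings scored control from 0 to 100%.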

[3] = tested on: Puccinia recondita f. sp. tritici (the causal agent of wheat leaf rust); experiment: Test C: preventive spray on wheat seedlings, wheat leaf rust, visual disease rating
Procedure, shortened: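 Wheat seedlings sprayed to run-off with compound in acetone/water (50/50) with 250 ppm PEG400, then inoculated with spores the following day. After 24 h saturated humidity at 20° C. and 6 days in growth chamber at 20° C., disease rated visually as % control relative to untreated controls.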

[4] = test suspension 50 ppm, soybean seedlings
[5] = test suspension 250 ppm, wheat seedlings
[6] = test suspension 50 ppm, wheat seedlings
[7] = test suspension 10 ppm, soybean seedlings, 100 = 100% disease control, 0 = no control
[8] = test suspension 10 ppm, wheat seedlings
[9] = test suspension 250 ppm, soybean seedlings
[10] = 10 ppm test suspension, soybean seedlings, 100 = 100% disease control, 0 = no control
[11] = 250 ppm test suspension, wheat seedlings, 100 = 100% disease control
[12] = 10 ppm test suspension, wheat seedlings, 100 = 100% disease control, 0 = no control
[13] = Zymoseptoria tritici, 456 h, test suspension 250 ppm, wheat seedlings
[14] = Phakopsora pachyrhizi, 216 h, test suspension 250 ppm, soybean seedlings
[15] = Puccinia recondita, 168 h, test suspension 250 ppm, wheat seedlings
[16] = test suspension 270 ppm, soybean seedlings
[17] = test suspension 270 ppm, wheat seedlings

| SMILES | Test B disease control rating [2, 5] | Test A disease control rating [1, 7] [%] | Test C disease control rating [3, 8] [%] | also measured |
| --- | --- | --- | --- | --- |
| CN(C)C(=O)C1=NOC(Cn2cc(-c3noc(C(F)(F)F)n3)cn2)C1 (stereo not drawn) [compound 306] | 10* % |  |  | Test A disease control rating [1, 4]: 0%; Test C disease control rating [3, 6]: 0% |
| O=C(NC1CSC1)c1coc(Cc2ccc(-c3noc(C(F)(F)F)n3)cc2)n1 [compound 329] | 98* % | 100 | 98 |  |
| CC(C)(NC(=O)c1coc(Cc2ccc(-c3noc(C(F)(F)F)n3)cc2)n1)C(F)(F)F [compound 331] | 97* % | 99 | 94 |  |
| CCOC(=O)c1cnn(Cc2csc(-c3noc(C(F)(F)F)n3)c2)c1 [compound 193] | 28* % |  |  | Test A disease control rating [1, 4]: 100%; Test C disease control rating [3, 6]: 100% |
| CC(C)NC(=O)c1coc(Cc2ccc(-c3noc(C(F)(F)F)n3)cc2)n1 [compound 259] | 99* % | 100 | 99 |  |
| Cn1c(C2CC2)nn(Cc2ccc(-c3noc(C(F)(F)F)n3)cc2)c1=O [compound 236] | 83% |  |  | Test A disease control rating [1, 9]: 100%; Test C disease control rating [3, 5]: 100% |
| FC(F)(F)c1nc(-c2ccc(OCc3ccon3)cc2)no1 [compound 318] | 11* % | 0 | 0 |  |
| O=C(c1coc(Cc2ccc(-c3noc(C(F)(F)F)n3)cc2)n1)N1CCC1 [compound 261] | 88* % | 100 | 99 |  |
| CON=Cc1cnn(Cc2ccc(-c3noc(C(F)(F)F)n3)cc2)c1 [compound 25] | 86* % |  |  | Test A disease control rating [1, 9]: 100%; Test C disease control rating [3, 5]: 100% |
| N#Cc1coc(Cc2ccc(-c3noc(C(F)(F)F)n3)cc2)n1 [compound 256] | 98* % | 100 | 99 |  |
| O=C(NC1CCC(F)(F)CC1)c1coc(Cc2ccc(-c3noc(C(F)(F)F)n3)cc2)n1 [compound 395] |  |  |  | Test A disease control rating [1, 10]: 95%; Test B disease control rating [2, 11]: 0* %; Test C disease control rating [3, 12]: 97% |
| O=S1(=O)CCCCN1Cc1ccc(-c2noc(C(F)(F)F)n2)cc1 [compound 321] | 99* % |  |  | Test A disease control rating [1, 9]: 100%; Test C disease control rating [3, 5]: 100% |
| COc1cccc(Cn2ccc(-c3noc(C(F)(F)F)n3)cc2=O)c1 [compound 233] |  |  |  | pest or weed control at 50 µg/mL ([1]; Phakopsora pachyrhizi, 216 h, test suspension 50 ppm, soybean seedlings): 97%; pest or weed control at 250 µg/mL [2, 13]: 90%; pest or weed control at 50 µg/mL ([3]; Puccinia recondita, 168 h, test suspension 50 ppm, wheat seedlings): 100% |
| FC(F)(F)c1nc(-c2ccc(OCc3cccnc3)cc2)no1 [Compound 353] | 73* % | 0 | 0 |  |
| COC(=O)c1cnn(Cc2ccc(-c3noc(C(F)(F)F)n3)cc2)c1 [Compound 21, methyl 1-[[4-[5-(trifluoromethyl)-1,2,4-oxadiazol-3-yl]phenyl]methyl]-1H-pyrazole-4-carboxylate] |  |  |  | pest or weed control at 10 µg/mL ([1]; Phakopsora pachyrhizi, 216 h, read-out: Test A disease control rating): 100%; pest or weed control at 100 µg/mL ([2]; Zymoseptoria tritici, 456 h, read-out: Test B disease control rating): 97%; pest or weed control at 10 µg/mL ([3]; Puccinia recondita, 168 h, read-out: Test C disease control rating): 100% |
| O=C(NCCn1cccn1)c1csc(COc2ccc(-c3noc(C(F)(F)F)n3)cc2)n1 [compound 471] |  |  |  | Test A disease control rating [1, 10]: 77%; Test B disease control rating [2, 11]: 15* %; Test C disease control rating [3, 12]: 80% |
| COCCNC(=O)c1cccc(Cc2ccc(-c3noc(C(F)(F)F)n3)cc2)c1 [compound 284] | 91* % | 100 | 100 |  |
| O=C(NC1CC1)c1csc(Cc2ccc(-c3noc(C(F)(F)F)n3)cc2)n1 [compound 342] | 99* % | 100 | 100 |  |
| O=C1C(=O)N(Cc2ccc(-c3noc(C(F)(F)F)n3)cc2)c2ccccc21 [compound 87] | 82% |  |  | Test A disease control rating [1, 9]: 100%; Test C disease control rating [3, 5]: 100% |

| SMILES | Test B disease control rating [2, 5] | Test A disease control rating [1, 7] [%] | Test C disease control rating [3, 8] [%] | also measured |
| --- | --- | --- | --- | --- |
| O=C(NCC1CC1(F)F)c1coc(Cc2ccc(-c3noc(C(F)(F)F)n3)cc2)n1 (stereo not drawn) [compound 226] | 94* % | 100 | 100 |  |
| N#Cc1cnn(CCCc2ccc(-c3noc(C(F)(F)F)n3)cc2)c1 [compound 359] | 99* % | 100 | 95 |  |
| N#Cc1cnn(Cc2ccc(-c3noc(C(F)(F)F)n3)cc2)c1 [Compound 95, 1-[[4-[5-(trifluoromethyl)-1,2,4-oxadiazol-3-yl]phenyl]methyl]-1H-pyrazole-4-carbonitrile] |  |  |  | pest or weed control at 250 µg/mL [1, 14]: 100%; pest or weed control at 250 µg/mL [2, 13]: 87%; pest or weed control at 250 µg/mL [3, 15]: 100% |
| Cn1c(=O)n(Cc2ccc(-c3noc(C(F)(F)F)n3)cc2)c2ccccc21 [Compound 159, 1,3-dihydro-1-methyl-3-[[4-[5-(trifluoromethyl)-1,2,4-oxadiazol-3-yl]phenyl]methyl]-2H-benzimidazol-2-one] |  |  |  | pest or weed control at 260 µg/mL ([1]; Phakopsora pachyrhizi, 216 h, test suspension 260 ppm, soybean seedlings): 100%; pest or weed control at 260 µg/mL ([2]; Zymoseptoria tritici, 456 h, test suspension 260 ppm, wheat seedlings): 87%; pest or weed control at 260 µg/mL ([3]; Puccinia recondita, 168 h, test suspension 260 ppm, wheat seedlings): 100% |
| FC(F)(F)c1nc(-c2ccc(Cn3cccn3)cc2)no1 [compound 162] | 0% |  |  | Test A disease control rating [1, 9]: 100%; Test C disease control rating [3, 5]: 100% |
| O=C(NCC(F)(F)F)c1coc(Cc2ccc(-c3noc(C(F)(F)F)n3)cc2)c1 [compound 291] | 13* % | 100 | 97 |  |
| C=CCOC(=O)c1cnn(Cc2ccc(-c3noc(C(F)(F)F)n3)cc2)c1 [compound 166] |  | 100 | 100 | Test B disease control rating ([2]; test suspension 100 ppm (** next to rating), wheat seedlings): 90** % |
| O=S1(=O)CCCN1Cc1ccc(-c2noc(C(F)(F)F)n2)cc1 [compound 322] | 95* % |  |  | Test A disease control rating [1, 9]: 100%; Test C disease control rating [3, 5]: 100% |
| OC(c1ccc(F)cc1)c1ccc(-c2noc(C(F)(F)F)n2)cc1 (stereo not drawn) [compound 500] |  |  |  | Test A disease control rating ([1]; 250 ppm test suspension, soybean seedlings, 100 = 100% disease control, 0 = no control): 100%; Test B disease control rating [2, 11]: 5* %; Test C disease control rating ([3]; 250 ppm test suspension, wheat seedlings, 100 = 100% disease control, 0 = no control): 100% |
| CCOC(=O)c1ccc(Cc2ccc(-c3noc(C(F)(F)F)n3)cc2)cc1 [compound 453] |  |  |  | Test A disease control rating [1, 10]: 92%; Test B disease control rating [2, 11]: 50* %; Test C disease control rating [3, 12]: 0% |
| O=C(NCCn1cccn1)c1coc(Cc2ccc(-c3noc(C(F)(F)F)n3)cc2)c1 [compound 293] | 91* % | 100 | 79 |  |
| O=C(NCC(F)(F)F)c1ccc(Cc2ccc(-c3noc(C(F)(F)F)n3)cc2)cc1 [compound 281] | 34* % | 100 | 95 |  |
| CON=C(CCl)COC(=O)c1cnn(Cc2ccc(-c3noc(C(F)(F)F)n3)cc2)c1 [compound 494] |  |  |  | Test A disease control rating [1, 10]: 100%; Test B disease control rating [2, 11]: 47* %; Test C disease control rating [3, 12]: 0% |
| COCC(COC)NC(=O)c1coc(Cc2ccc(-c3noc(C(F)(F)F)n3)cc2)n1 [compound 279] | 94* % | 100 | 100 |  |
| Cc1cc(C(F)(F)F)nn1Cc1ccc(-c2noc(C(F)(F)F)n2)cc1 [compound 132] |  |  |  | Test A disease control rating [1, 16]: 100%; Test B disease control rating [2, 17]: 0%; Test C disease control rating [3, 17]: 95% |
| COC(=O)c1coc(Cc2ccc(-c3noc(C(F)(F)F)n3)cc2)c1 [compound 456] |  |  |  | Test A disease control rating [1, 10]: 100%; Test B disease control rating [2, 11]: 65* %; Test C disease control rating [3, 12]: 68% |
| COC(=O)c1ccc(COc2ccc(-c3noc(C(F)(F)F)n3)cc2)cc1 [compound 354] | 20* % | 0 | 0 |  |
| N#Cc1nn(Cc2ccc(-c3noc(C(F)(F)F)n3)s2)cc1Br [compound 76] |  |  |  | Test A disease control rating [1, 16]: 100%; Test B disease control rating [2, 17]: 41%; Test C disease control rating [3, 17]: 99% |
| FC(F)(F)c1nc(-c2ccc(Cn3cc(Br)cn3)s2)no1 [Compound 71, 3-[5-[(4-bromo-1H-pyrazol-1-yl)methyl]-2-thienyl]-5-(trifluoromethyl)-1,2,4-oxadiazole] |  |  |  | pest or weed control at 250 µg/mL [1, 14]: 100%; pest or weed control at 250 µg/mL [2, 13]: 36%; pest or weed control at 250 µg/mL [3, 15]: 100% |
